Broadly, the IC50 is the concentration that inhibits the measured activity by half. Read a low IC50 as greater potency in that assay.

These results are taken from patent US20130060013A1, “Compounds useful for treating neurodegenerative disorders” (SATORI PHARMACEUTICALS, INC., priority 2011, published 2013).

What all share (format): cell-based
Common to all, as to conditions: Homo sapiens, compound 5 hours at 37° C., 1% DMSO, percent vehicle fit to 4 parameter curve

Experiment [1] concerns Aβ-40. As to the kind of experiment: Aβ-40 level in conditioned media of 2B7 cells (MSD 3-PLEX ELISA). On the procedure:
(§1) Assays were conducted to determine the ability of a Compound of Formula I to modulate […], and Aβ-38.
Human (6E10) Ab 3-PLEX elisa kits were purchased from Meso Scale Discovery Labs, 9328 Gaither Road, Gaithersburg, Md. 20877 (Catalog Number K15148E-3). Plates with capture antibodies were blocked for 1-2 hours at room temperature with 150 μL of the manufactures blocking reagent.
(§2) Cultured 2B7 cells in 96 well plate with 250 uL of media per well until confluent;
(§3) Prepared serial dilutions of compounds in DMSO at 100× the final desired concentration;
(§4) Washed wells with 2B7 cells 1× with 250 uL of media;
(§5) Diluted DMSO stocks 1:100 into media:
(§6) Added 250 μL of media containing compounds (1% DMSO) to wells with 2B7 cells for 5 hours at 37° C.
(§7) Diluted conditioned media: 1 part media with 1% DMSO and 1 part blocking buffer;
(§8) 150 μL of the 250 μL of conditioned media were used.
(§9) Standard Curve Sample Prep:
(§10) Prepared per manufacturer's protocol (see above)
(§11) Seven point standard curve samples were prepared that contained Aβ-42, Aβ-40, and Aβ-38. The highest concentration of Aβ-42 and Aβ-38 was 3,000 pg/mL and the highest concentration of Aβ-40 was 10,000 pg/mL. Subsequent serial dilutions were 1:3 and the final composition of each sample was 1 part blocking buffer and 1 part cell medium containing 1% DMSO.
(§12) Overnight Sample Incubation:
(§13) Blocked plates are washed 5× with MSD wash buffer with a plate washer
(§14) 25 uL of detection antibody and blocker G reagent in MSD blocking solution is added
(§15) 25 uL of samples (1 part conditioned media containing 1% DMSO and 1 part MSD blocking buffer) are then added.
(§16) plates are incubated overnight at 4 degrees C. or 2 hours at room temp
(§17) Wash wells 5× with MSD wash buffer
(§18) Added 150 μL 2×MSD read buffer
(§19) A-Beta peptide levels for each peptide are calculated from the standard curve using the MSD software provided with the MSD 2400 Imager. Percent vehicle values for each compound dosage were then calculated and fit to a 4 parameter curve generating IC50 values.

Experiment [2] concerns Aβ-38. As to the kind of experiment: Aβ-38 level in conditioned media of 2B7 cells (MSD 3-PLEX ELISA). On the procedure: as §1
(§20) Plates with capture antibodies were blocked for 1-2 hours at room temperature with 150 μL of the manufactures blocking reagent.
as §2, §3, §4, §5, §6, §7, §8, §9, §10, §11, §12, §13, §14, §15, §16, §17, §18, §19

In experiment [3] the test system is Aβ-42. As to the kind of experiment: Aβ-42 level in conditioned media of 2B7 cells (MSD 3-PLEX ELISA). On the procedure:
as §1, §20, §2, §3, §4, §5, §6, §7, §8, §9, §10, §11, §12, §13, §14, §15, §16, §17, §18, §19
(An ELISA detects its analyte on a solid surface through an enzyme-linked reagent.)

Bounds are passed on as bounds.

Regarding `CCO[C@@H]([C@H]1C[C@@H](C)[C@H]2[C@H](O1)[C@H](O)[C@@]1(C)[C@@H]3CC[C@H]4C(C)(C)[C@@H](OC(=O)C5CN(CCOC)C5)CCC45C[C@@]35CC[C@]21C)C(C)(C)O` (some centres unmarked), the IC50 was 1000 to 10000 nM in experiment [1], < 1000 nM in experiment [2] and < 1000 nM in experiment [3].

On to `CCO[C@@H]([C@H]1C[C@@H](C)[C@H]2[C@H](O1)[C@H](O)[C@@]1(C)[C@@H]3CC[C@H]4C(C)(C)[C@@H](OC(=O)[C@@H]5CCCN5)CCC45C[C@@]35CC[C@]21C)C(C)(C)O` (some centres unmarked), for which the values for the IC50 in experiment [1], in experiment [2] and in experiment [3] were 1000 to 10000 nM, < 1000 nM and < 1000 nM, respectively.

Regarding `CCO[C@@H]([C@H]1C[C@@H](C)[C@H]2[C@H](O1)[C@H](O)[C@@]1(C)[C@@H]3CC[C@H]4C(C)(C)[C@@H](O[C@H]5CN(CC(=O)N(C)C)CCO5)CCC45C[C@@]35CC[C@]21C)C(C)(C)O` (some centres unmarked), the results for the IC50 in experiment [1], in experiment [2] and in experiment [3] were 1000 to 10000 nM, < 1000 nM and < 1000 nM, respectively.

`CCO[C@@H](C1C[C@@H](C)[C@H]2C(O1)[C@H](O)[C@@]1(C)C3CC[C@H]4C(C)(C)[C@@H](O[C@H]5CN(C(=O)CC6CN(C)C6)CCO5)CCC45C[C@@]35CC[C@]21C)C(C)(C)O` (some centres unmarked): the IC50 is 1000 to 10000 nM in experiment [1], < 1000 nM in experiment [2] and < 1000 nM in experiment [3].

Take `CCO[C@@H]([C@H]1C[C@@H](C)[C@H]2[C@H](O1)[C@H](O)[C@@]1(C)[C@@H]3CC[C@H]4C(C)(C)[C@@H](O[C@H]5CN(c6cncc(F)c6)CCO5)CCC45C[C@@]35CC[C@]21C)C(C)(C)C` (some centres unmarked): the IC50 is > 10000 nM in experiment [1], 1000 to 10000 nM in experiment [2] and 1000 to 10000 nM in experiment [3].

Take `CCO[C@@H]([C@H]1C[C@@H](C)[C@H]2[C@H](O1)[C@H](O)[C@@]1(C)[C@@H]3CC[C@H]4C(C)(C)[C@@H](OC5CN(CC(=O)N6CCOCC6)CCO5)CCC45C[C@@]35CC[C@]21C)C(C)(C)O` (some centres unmarked): the figures for the IC50 in experiment [1], in experiment [2] and in experiment [3] were > 10000 nM, < 1000 nM and < 1000 nM, respectively.

As for `CCO[C@@H]([C@H]1C[C@@H](C)[C@H]2[C@H](O1)[C@H](O)[C@@]1(C)[C@@H]3CC[C@H]4C(C)(C)[C@@H](O[C@H]5CN([C@@H](C)COC)CCO5)CC[C@@]45C[C@@]35CC[C@]21C)C(C)(C)O`, the IC50 in experiment [1] was > 10000 nM; in experiment [2] it was 1000 to 10000 nM; in experiment [3] it was < 1000 nM.

Take `CCO[C@@H]([C@H]1C[C@@H](C)[C@H]2[C@H](O1)[C@H](O)[C@@]1(C)[C@@H]3CC[C@H]4C(C)(C)[C@@H](O[C@H]5CN(C(C)(C)CO)CCO5)CCC45C[C@@]35CC[C@]21C)C(C)(C)O` (some centres unmarked): the IC50 in experiment [1] was 1000 to 10000 nM; in experiment [2], < 1000 nM; in experiment [3], < 1000 nM.

Regarding `CCO[C@@H]([C@H]1C[C@@H](C)[C@H]2[C@H](O1)[C@H](O)[C@@]1(C)[C@@H]3CC[C@H]4C(C)(C)[C@@H](OC(=O)C5CCN5C(=O)OC(C)(C)C)CCC45C[C@@]35CC[C@]21C)C(C)(C)O` (some centres unmarked), the IC50 is 1000 to 10000 nM in experiment [1], 1000 to 10000 nM in experiment [2] and < 1000 nM in experiment [3].

With `CCO[C@@H]([C@H]1C[C@@H](C)[C@H]2[C@H](O1)[C@H](O)[C@@]1(C)[C@@H]3CC[C@H]4C(C)(C)C(O[C@H]5CN(CCN(CCCOCCOCCOCCCNC(=O)CCCCC6SC[C@@H]7NC(=O)N[C@H]67)CCNC(=O)CCC6(C)N=N6)CCO5)CC[C@@]45CC35CC[C@]21C)C(C)(C)O` (some centres unmarked), the results for the IC50 in experiment [1] and in experiment [3] were 1000 to 10000 nM and < 1000 nM, respectively.

For `CCO[C@@H]([C@H]1C[C@@H](C)[C@H]2[C@H](O1)[C@H](O)[C@@]1(C)[C@@H]3CC[C@H]4C(C)(C)[C@@H](O[C@H]5CN([C@H](C)C(=O)N(C)C)CCO5)CCC45C[C@@]35CC[C@]21C)C(C)(C)O` (some centres unmarked), the IC50 in experiment [2] and in experiment [3] was < 1000 nM throughout.

Turning to `C[C@@H]1C[C@H]([C@H](OCCO)C(C)(C)O)O[C@H]2[C@H]1[C@@]1(C)CC[C@@]34CC35CC[C@H](O[C@H]3CN(C6CN(C7COC7)C6)CCO3)C(C)(C)[C@@H]5CC[C@H]4[C@]1(C)[C@H]2O` (some centres unmarked), the IC50 in experiment [2] and in experiment [3] was 1000 to 10000 nM each time.

As for `CCO[C@@H]([C@H]1C[C@@H](C)[C@H]2[C@H](O1)[C@H](O)[C@]1(C)[C@@H]3CC[C@H]4C(C)(C)[C@@H](O[C@H]5CN([C@H](C)CN6CCC6)CCO5)CC[C@@]45C[C@@]35CC[C@@]21C)C(C)(C)O`, the IC50 in experiment [2] and in experiment [3] was < 1000 nM each time.

Regarding `CC(=O)O[C@H]([C@H]1C[C@@H](C)[C@H]2[C@@H](O1)[C@@H](O)[C@@]1(C)[C@@H]3CC[C@H]4C(C)(C)[C@@H](O)CCC45C[C@@]35CC[C@]21C)C(C)(C)O` (some centres unmarked), the IC50 in experiment [1] and in experiment [3] was 1000 to 10000 nM in each case.

Turning to `CCO[C@@H]([C@H]1C[C@@H](C)[C@H]2[C@H](O1)[C@H](O)[C@@]1(C)[C@@H]3CC[C@H]4C(C)(C)[C@@H](OC(=O)[C@@H]5CNCCO5)CCC45C[C@@]35CC[C@]21C)C(C)(C)O` (some centres unmarked), the IC50 in experiment [2] and in experiment [3] was < 1000 nM throughout.

Consider `CO[C@@H]([C@H]1C[C@@H](C)[C@H]2[C@H](O1)[C@H](O)[C@@]1(C)[C@@H]3CC[C@H]4C(C)(C)[C@@H](O[C@H]5CNCCO5)CCC45C[C@@]35CC[C@]21C)C(C)(C)OC` (some centres unmarked), for which the IC50 in experiment [2] and in experiment [3] was < 1000 nM each time.

Consider `CCO[C@@H]([C@H]1C[C@@H](C)[C@H]2[C@H](O1)[C@H](O)[C@@]1(C)[C@@H]3CC[C@H]4C(C)(C)[C@@H](OC(=O)[C@H]5COCCN5C(=O)OC(C)(C)C)CCC45C[C@@]35CC[C@]21C)C(C)(C)O` (some centres unmarked), for which the IC50 in experiment [2] and in experiment [3] was 1000 to 10000 nM in each case.

As to `CCO[C@@H]([C@H]1C[C@@H](C)[C@H]2[C@H](O1)[C@H](O)[C@@]1(C)[C@@H]3CC[C@H]4C(C)(C)C(O[C@H]5CN(CCNCCNC(=O)CCC6(C)N=N6)CCO5)CC[C@@]45CC35CC[C@]21C)C(C)(C)O` (some centres unmarked), the IC50 was 1000 to 10000 nM in experiment [2] and < 1000 nM in experiment [3].

For the compound `CCO[C@@H]([C@H]1C[C@@H](C)[C@H]2[C@H](O1)[C@H](O)[C@@]1(C)[C@@H]3CC[C@H]4C(C)(C)[C@@H](OC(=O)C5CN(C6COC6)C5)CCC45C[C@@]35CC[C@]21C)C(C)(C)O` (some centres unmarked), the figures for the IC50 in experiment [2] and in experiment [3] were 1000 to 10000 nM and < 1000 nM, respectively.

On to `CCO[C@@H]([C@H]1C[C@@H](C)[C@H]2[C@H](O1)[C@H](O)[C@@]1(C)[C@@H]3CC[C@H]4C(C)(C)[C@@H](O[C@H]5CN(Cc6nccn6C)CCO5)CCC45C[C@@]35CC[C@]21C)C(C)(C)O` (some centres unmarked), for which the IC50 is 1000 to 10000 nM in experiment [2] and < 1000 nM in experiment [3].

With `CCO[C@@H]([C@H]1C[C@@H](C)[C@H]2[C@H](O1)[C@H](O)[C@@]1(C)[C@@H]3CC[C@H]4C(C)(C)[C@@H](O[C@H]5CN(Cc6nccs6)CCO5)CCC45C[C@@]35CC[C@]21C)C(C)(C)O` (some centres unmarked), the IC50 in experiment [2] was 1000 to 10000 nM; in experiment [3] it was < 1000 nM.

Take `CCO[C@@H]([C@H]1C[C@@H](C)[C@H]2[C@H](O1)[C@H](O)[C@@]1(C)[C@@H]3CC[C@H]4C(C)(C)[C@@H](O[C@H]5CN(CC(F)F)CCO5)CCC45C[C@@]35CC[C@]21C)C(C)(C)O` (some centres unmarked): the IC50 in experiment [2] is 1000 to 10000 nM; in experiment [3], < 1000 nM.
